Measured values reported in PubChem BioAssay AID179 (DTP/NCI, 2004).
Calls of active or inactive are those of the source.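 The calls were made as follows: active = compounds giving half or more protection of infected cells from virus-caused growth loss, again on retest; inactive = the rest.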

Tested on: CEM cells HIV-1 protection, formazan growth assay
Assay: NCI AIDS Antiviral Assay
Details: for IC50: measured here: growth of uninfected CEM cells
Procedure, shortened: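 Human CEM cells, uninfected and HIV-1-infected, received five drug concentrations, and growth was read by soluble formazan assay. Compounds giving at least 50% protection were retested; reproducible 100% protection defined confirmed active.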

Structure (SMILES)	EC50	IC50	outcome
O=C1CC(=O)NC(=NN2C(=O)CSC2c2ccc(Cl)c(Cl)c2)N1 (centres undefined)	> 200 µM	102 µM	–
NC(Cc1ccc[se]1)C(=O)O (centres undefined)	> 200 µM	> 200 µM	–
Cc1nn(C(=O)c2ccc(Cl)cc2)c2c1C(c1cccc([N+](=O)[O-])c1)SC(N)=N2 (centres undefined)	126 µM	138 µM	–
Cc1c2ccncc2cc2c1sc1ccncc12	> 39.8 µM	0.589 µM	–
Cc1ncc([N+](=O)[O-])n1CC[N+](C)([O-])CCCCn1ccnc1[N+](=O)[O-] (centres undefined)	–	–	inactive
CN1C(=O)C(=O)n2c(cc3ccccc32)C1=O	> 6.31 µM	> 6.31 µM	–
Cn1c2ccccc2c2oc(CO)cc(=O)c21	> 200 µM	126 µM	–
NC(=O)CCCCNC(=O)c1ccccc1SC(=O)CCCC[n+]1ccccc1	1.26 µM	10.7 µM	–
Cc1nc2c(ncn2CCO)c(=O)[nH]1	> 200 µM	> 200 µM	–
Nc1nc(Cl)cc(Nc2ccc3c(c2)CCC3)n1	> 200 µM	22.4 µM	–
CCC(=O)c1ccc2[nH]c3c(C)c4c(=O)cc(C)[nH]c4c(C)c3c2c1	> 100 µM	> 100 µM	–
CC(/C=N/NC1=NCCCN1)=N\NC1=NCCCN1	> 200 µM	> 200 µM	–
CCc1nnc(CC)n1NCCCC(=O)O	> 200 µM	> 200 µM	–
NCCSC(C[N+](=O)[O-])c1ccccc1Cl (centres undefined)	> 200 µM	2.19 µM	–
Cn1c(=O)c2[nH]c(/N=N\n3ccc4ccccc43)nc2n(C)c1=O	> 200 µM	191 µM	–
O=[N+]([O-])c1ccccc1SS(=O)(=O)c1ccc(Cl)cc1	> 79.4 µM	44.7 µM	–
Cc1ccc(C(=O)O/N=C2/CCCC/C2=C\c2ccccc2)cc1	–	–	inactive
Cc1cccc(C)c1C1(Cl)C(=O)c2ccccc2C1=O	> 200 µM	13.5 µM	–
Cc1ccc(C)c(NC(=O)CCc2n[nH]c(=S)o2)c1	> 9.33 µM	> 9.33 µM	–
Cc1cccc(C(=O)c2ccccc2)c1C(=O)O	> 200 µM	> 200 µM	–
CCSC1=CC(Cc2ccc(OC)cc2)N(C(=O)OC)C1 (centres undefined)	> 85.1 µM	60.3 µM	–
COC(=O)C1=C(C)C(=O)[C@]23C(CCCC[C@H]12)C(=O)[C@H](C(=O)OC)C3C (some centres undefined)	> 200 µM	> 200 µM	–
O=C(NN1C(=O)C(Cl)C1c1c(O)ccc2ccccc12)c1ccccc1O (centres undefined)	> 67.6 µM	> 67.6 µM	–

Structure (SMILES)	EC50	IC50	outcome
C1=NCCNCCNCCN=Cc2ccccc2OCc2cccc(n2)COc2ccccc21	> 50.1 µM	7.76 µM	–
COc1cccc2c1OC1(N3CCOCC3)CCCCC1C2C[N+](=O)[O-] (centres undefined)	> 200 µM	> 200 µM	–
NC(=O)C12CCC1C1CCCCC12N1CCOCC1 (centres undefined)	–	–	inactive
O=C(/C=C(\Nc1ccccc1O)c1ccccc1)C(=O)NC12CC3CC(CC(C3)C1)C2	> 200 µM	> 200 µM	–
CN(/N=C/c1ccccc1O)c1ccc2ccccc2n1	> 200 µM	126 µM	–
OCC1OC(O)C(N=C/C=C/c2ccccc2)C(O)C1O (centres undefined)	> 200 µM	22.9 µM	–
CCCCOC(=O)NC(Nc1ccc(S(=O)(=O)Nc2ncccn2)cc1)(C(F)(F)F)C(F)(F)F	> 200 µM	> 200 µM	–
CCOC(=O)C1=C(C)NC(C)=C(C(=O)OCCNC(=O)c2ccc(N=[N+]=[N-])cc2)C1c1ccccc1C(F)(F)F (centres undefined)	> 200 µM	10.5 µM	–
CCCCNC(=O)/C(=C/c1ccc2c(c1)OCO2)NC(=O)c1ccccc1	> 200 µM	> 200 µM	–
Cc1cc(C)c(C2CNCc3cc4c(cc32)CNCC4c2c(C)cc(C)cc2C)c(C)c1 (centres undefined)	> 20 µM	2.57 µM	–
CCOC(=O)C1(C(=O)OCC)OC(C)=NC1(C(=O)OC)C(=O)OC	> 200 µM	> 200 µM	–
Nc1ccc(Sc2nnc(N)s2)cc1	> 224 µM	> 224 µM	–
COC1CC(CC2CCC(C)C(C(C)C(=O)O)O2)OC2(OC(C)(C3CCC(C)(C4OC(C5OC(O)(CO)C(C)CC5C)CC4C)O3)CC2C)C1C (centres undefined)	0.0575 µM	0.537 µM	–
CCOC(=O)c1c(C)nc2c3ccccc3c(C#N)c(C)n12	> 100 µM	> 100 µM	–
NC(=S)N/N=C1\CCCC\C1=C/c1ccccc1	> 138 µM	112 µM	–
O=c1c(C2=NCCC2)c(-c2ccc[nH]2)[nH]n1-c1ccccc1	> 200 µM	> 200 µM	–
CC1(C)OC(=O)C=C[C@@]2(C)C1CC(=O)C1(C)C2CCC2(C)C(c3ccoc3)OC(=O)[C@H]3O[C@]321 (some centres undefined)	> 200 µM	> 200 µM	–
O=C(OCCN1CCOCC1)c1cc2ccccc2oc1=O	> 741 µM	> 741 µM	–
CCOP(=O)(OCC)C(Nc1ccc(Cl)cc1)c1ccc(F)cc1 (centres undefined)	–	–	inactive
O=c1c2cc3c(=O)n(-c4ccccc4Cl)c(=O)c3cc2c(=O)n1-c1ccccc1Cl	> 40.7 µM	> 40.7 µM	–
CC1OC=CC(=O)C1O (centres undefined)	–	–	inactive
Cc1cc(NCCCCCCNc2cc(C)nc3ccc(Cl)cc23)c2cc(Cl)ccc2n1	> 6.92 µM	> 6.92 µM	–
CCc1ccccc1NC(=O)/C(CC(=O)c1c(C)n([O-])c2ccccc2[n+]1=O)=N\NS(=O)(=O)c1ccc(C)cc1	> 23.4 µM	13.5 µM	–

Structure (SMILES)	EC50	IC50	outcome
COc1ccc2c(=O)c3ccoc3[nH]c2c1	> 100 µM	> 100 µM	–
N/C(=N\N=C\c1ccc2c(c1)OCO2)N/N=C\c1ccc2c(c1)OCO2	> 200 µM	–	–
CC1=NN(C(=O)c2cc(Cl)cc([N+](=O)[O-])c2)C(=O)C1N=Nc1ccccc1C(=O)O (centres undefined)	–	–	inactive
CCCCCC(C)[P+](c1ccccc1)(c1ccccc1)c1ccccc1 (centres undefined)	> 200 µM	0.955 µM	–
CNc1ccc(C)cc1S(=O)(=O)c1ccccc1[N+](=O)[O-]	0.832 µM	16.6 µM	–
CCN(CC)c1ccc2cc3ccc(=[N+](CC)CC)cc-3oc2c1	> 501 µM	0.158 µM	–
Cc1[nH]c2ccccc2c1C(=O)CC1(O)C(=O)Nc2c(Cl)cc(Cl)cc21 (centres undefined)	> 339 µM	158 µM	–
CN(C)CCC(=O)N1CCc2c([nH]c3ccccc23)C1c1cccnc1 (centres undefined)	> 372 µM	> 372 µM	–
COC(CC1(OC)OC(=O)C=C1N)OC (centres undefined)	–	–	inactive
NC(N)=N/N=C/c1ccc[nH]1	> 200 µM	> 200 µM	–
OC1C2[C@@H](O)CCCN2C[C@@H](O)[C@H]1O (some centres undefined)	> 200 µM	> 200 µM	–
CC#CCCCC1(C)CCNC1=S (centres undefined)	> 200 µM	> 200 µM	–
C/C(=N\N=C(\[Se])N1CCN(c2ccccn2)CC1)c1ccccn1	> 36.3 µM	0.0155 µM	–
C/C(Cl)=N\OC(=O)Nc1ccc([N+](=O)[O-])cc1	> 200 µM	10.5 µM	–
COc1cc(/C=C2\CCC(C)c3c2nc(N)c(C#N)c3-c2cc(OC)c(OC)c(OC)c2)cc(OC)c1OC (centres undefined)	–	–	inactive
COC(=O)C1C2COc3ccccc3C2=NC1c1ccc([N+](=O)[O-])cc1 (centres undefined)	> 100 µM	13.8 µM	–
Cc1nnc2n1N=C1CC(C)(C)CC(=O)C1S2 (centres undefined)	> 105 µM	> 105 µM	–
CCOC(=O)C1=NN(c2ccc(C)cc2)C2(c3ccccc3)C=C(c3ccccc3)N(C)CCN12 (centres undefined)	> 200 µM	145 µM	–
O=C(O)c1ccc(CSc2ccc([N+](=O)[O-])cc2)cc1	> 89.1 µM	72.4 µM	–
CCCCN(CC)C(=O)C1=C(C)NC(C)=C(C(=O)N(CC)CCCC)C1	> 200 µM	135 µM	–
O=C(O)/C=C/c1ccc(Oc2ccccc2C(=O)O)o1	> 49 µM	> 49 µM	–
O=C(O)c1ccc(CS(=O)c2ccccc2C(=O)O)c([N+](=O)[O-])c1 (centres undefined)	> 708 µM	> 708 µM	–
O/N=C\C(=Nc1ccc(Cc2ccc(N=C(/C=N\O)NO)cc2)cc1)NO	> 355 µM	39.8 µM	–

Structure (SMILES)	EC50	IC50	outcome
CCc1nc(N)c2nc(-c3cccs3)oc2n1	> 200 µM	182 µM	–
Cn1c2ccccc2c2c(-c3ccccc3)cc3c(c21)C(=O)C=CC3=O	> 100 µM	5.5 µM	–
CC(=O)/C(=C\N1CCNC1=S)C(=O)Nc1ccccc1	> 200 µM	> 200 µM	–
O=C(NC(O)(C(F)(F)F)C(F)(F)F)c1ccccc1	> 200 µM	129 µM	–
C=C1N2[C@@H](CO)[C@H](c3ccccc3)O[C@]2(C)CC[C@]1(C)Cc1ccccc1	> 200 µM	83.2 µM	–
O=C1CC2C3C1N(c1ccc(Cl)cc1)C1(Nc4ccc(Cl)cc4)C(=O)CC(C31)N2c1ccc(Cl)cc1 (centres undefined)	> 200 µM	33.9 µM	–
Cc1cccc2c1C(=O)OC2(c1cccc2ccccc12)c1cccc2ccccc12	–	–	inactive
CC1=C(Br)CC23C(C1)OC(Br)(C=CC2(C)O)C3(C)C (centres undefined) (tested in a mixture with another compound)	–	–	inactive
COc1cc(C2SCC(=O)N2c2ccc(-c3ccc(-n4c(-c5ccccc5)nc5ccccc5c4=O)cc3)cc2)ccc1O (centres undefined)	> 200 µM	67.6 µM	–
C=C1CN(S(=O)(=O)c2ccc(C)cc2)CCCN(Cc2ccc(C)o2)CCCN(S(=O)(=O)c2ccc(C)cc2)C1	> 200 µM	> 200 µM	–
CC(=Nc1ccccc1C(=O)[O-])c1c([O-])ccc2c(C)cc(=O)oc12.[Cu+2].[OH3+]	> 1.32 µM	> 1.32 µM	–
CCOC(=O)CC1(Cc2ccc(OCc3ccccc3)cc2)C(=O)OC(c2ccccc2)N1C(=O)c1ccccc1 (centres undefined)	> 200 µM	> 200 µM	–
COc1ccc2nc3cc(Cl)ccc3c(Sc3ccccc3[N+](=O)[O-])c2c1	> 9.55 µM	> 9.55 µM	–
CCOP(=O)(CCn1cnc2c(N)ncnc21)OCC	178 µM	437 µM	–
CC(=O)O/N=C(Cl)/C(Cl)=N/OC(C)=O	–	–	inactive
CC1=Nc2cc(C(=O)c3ccccc3)ccc2N=C(c2c(O)c3c(ccc4ccccc43)oc2=O)C1	> 20 µM	> 20 µM	–
COc1cc(/C=C/C2=C(C#N)C(=O)OC2(C)C)ccc1O	> 126 µM	> 126 µM	–
NC(CCc1nc(-c2ccccc2)cs1)C(=O)O (centres undefined)	–	–	inactive
CCC(C(=O)c1ccccc1)C(CCCC(=O)Nc1c(C)cccc1C)N=O (centres undefined)	> 661 µM	355 µM	–
CCCCCC(=O)OC1CN2CC[C@H](O)C2C(O)[C@@H]1O (some centres undefined)	–	–	inactive
